Source: US9439432B2, “Phenylisoxazoline-based compound having herbicidal activity and use thereof” (MOGHU RESEARCH CENTER LTD, priority 2011, dated 2016)

Experiments:
Format in all cases: in vivo
Corn [1] = test: Pre-emergence treatment, phytotoxicity to corn; conditions: 500 g/ha, 4 weeks after spraying, scale 0 to 10 (0: no effects, 10: complete death)
How it was run: (§1)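 Scoring on a 0 (no effect) to 10 (complete death) scale was done four weeks after a pre-emergence spray, given one day post-sowing and irrigation, of 62.5–500 g/ha in acetone/tween 20 at 300 L/ha. Pots held 1:1 sandy loam and bed soil in a greenhouse, 25–30° C day, 15–25° C night.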

Digitaria sanguinalis [2] = test: Post-emergence treatment, herbicidal efficacy on large crabgrass; conditions: 4 weeks after spraying, scale 0 to 10
How it was run: (§2)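 Scores run 0 (no effect) to 10 (complete death), read four weeks after a 300 L/ha track spray of acetone/0.2% Tween 20 solutions at 125–1,000 g/ha. Plants, grown in 1:1 sandy loam/bed soil under 25–30° C days and 15–25° C nights, were treated at roughly 3-leaf stage.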

Wheat [3] = test: Pre-emergence treatment, phytotoxicity to wheat; conditions: 500 g/ha, 4 weeks after spraying, scale 0 to 10 (0: no effects, 10: complete death)
How it was run: as §1

Rice [4] = test: Post-emergence treatment, phytotoxicity to rice; conditions: post-emergence (about 3 leaf stage), 1,000 g/ha, 4 weeks after spraying, scale 0 to 10 (0: no effects, 10: complete death)
How it was run: as §2

Alopecurus myosuroides [5] = test: Pre-emergence treatment, herbicidal efficacy on blackgrass; conditions: 4 weeks after spraying, scale 0 to 10
How it was run: as §1

Cotton [6] = test: Pre-emergence treatment, phytotoxicity to cotton; conditions: 500 g/ha, 4 weeks after spraying, scale 0 to 10 (0: no effects, 10: complete death)
How it was run: as §1

Wheat [7] = test: Post-emergence treatment, phytotoxicity to wheat; conditions: post-emergence (about 3 leaf stage), 1,000 g/ha, 4 weeks after spraying, scale 0 to 10 (0: no effects, 10: complete death)
How it was run: as §2

[8] = test system: grass weeds including barnyardrass, large crabgrass, and annual bluegrass; test: Pre-emergence treatment, grass weeds overall; conditions: relative to reference compounds
Procedure: (§3) A rectangular plastic pot having a surface area of 300 cm^2 was filled with sandy loam soil and mixed bed soil which were mixed at a ratio of 1:1, and then, barnyardrass (Echinochloa crusgalli), large crabgrass (Digitaria sanguinalis), blackgrass (Alopecurus myosuroides), and annual bluegrass (Poa annua), which are grass weeds, were seeded thereto. In a pot that was prepared as described above, seeds of corn, soybean, cotton, wheat, and rice were seeded. The pots were irrigated, and one day after, chemicals were sprayed thereto. The spraying was performed by using a track sprayer (R&D Sprayer, USA) equipped with a Teejet 8002 (Spraying Systems Co., USA) nozzle, and a spraying amount was adjusted at 300 L/ha. A spraying solution was prepared by dissolving test materials or references in acetone and adding the same amount of 0.2%(v/v) tween 20 aqueous solution thereto. Application rates were 500, 250, 125, and 62.5 g/ha. The pots were placed in a greenhouse in which during day, the temperature was maintained at a temperature of 25 to 30° C., and during night, the temperature was maintained at a temperature of 15 to 25° C., and the pots were periodically irrigated. Four weeks after the spraying the test materials or References, effects and phytotoxicity of the respective weeds and crops were evaluated in a scale of 0 to 10 (0: no effects, 10: complete death), and results thereof are shown in Table 4 below.

Poa annua [9] = test: Post-emergence treatment, herbicidal efficacy on annual bluegrass; conditions: 4 weeks after spraying, scale 0 to 10
How it was run: as §2

Soybean [10] = test: Pre-emergence treatment, phytotoxicity to soybean; conditions: 500 g/ha, 4 weeks after spraying, scale 0 to 10 (0: no effects, 10: complete death)
How it was run: as §1

Cotton [11] = test: Post-emergence treatment, phytotoxicity to cotton; conditions: post-emergence (about 3 leaf stage), 1,000 g/ha, 4 weeks after spraying, scale 0 to 10 (0: no effects, 10: complete death)
How it was run: as §2

Soybean [12] = test: Post-emergence treatment, phytotoxicity to soybean; conditions: post-emergence (about 3 leaf stage), 1,000 g/ha, 4 weeks after spraying, scale 0 to 10 (0: no effects, 10: complete death)
How it was run: as §2

Alopecurus myosuroides [13] = test: Post-emergence treatment, herbicidal efficacy on blackgrass; conditions: 4 weeks after spraying, scale 0 to 10
How it was run: as §2

[14] = test system: barnyardgrass, large crabgrass, and annual bluegrass; test: Post-emergence treatment, grass weeds overall; conditions: 250 g/ha
Procedure: as §3
Pots containing crops and weeds were prepared in the same manner as in Example 7, and then, in the second week in which crops and weeds entered into about 3 leaf stage, the test materials and the references were sprayed thereto in the same manner as described above. The rates were 1,000, 500, 250, and 125 g/ha. Four weeks after the spraying of the test materials or the references, herbicidal efficacy and phytotoxicity to the respective weeds and crops were evaluated in a scale of 0 to 10 (0: no effects, 10: complete death).

Corn [15] = test: Post-emergence treatment, phytotoxicity to corn; conditions: post-emergence (about 3 leaf stage), 1,000 g/ha, 4 weeks after spraying, scale 0 to 10 (0: no effects, 10: complete death)
How it was run: as §2

Echinochloa crusgalli [16] = test: Pre-emergence treatment, herbicidal efficacy on barnyardgrass; conditions: 4 weeks after spraying
How it was run: as §1

Rice [17] = test: Pre-emergence treatment, phytotoxicity to rice; conditions: 500 g/ha, 4 weeks after spraying, scale 0 to 10 (0: no effects, 10: complete death)
How it was run: as §1

Echinochloa crusgalli [18] = test: Post-emergence treatment, herbicidal efficacy on barnyardgrass; conditions: 4 weeks after spraying, scale 0 to 10
How it was run: as §2

Poa annua [19] = test: Pre-emergence treatment, herbicidal efficacy on annual bluegrass; conditions: 4 weeks after spraying, scale 0 to 10
How it was run: as §1

Digitaria sanguinalis [20] = test: Pre-emergence treatment, herbicidal efficacy on large crabgrass; conditions: 4 weeks after spraying, scale 0 to 10
How it was run: as §1

With Cc1ccccc1C1=NOC(C)(COCc2c(F)cccc2F)C1 (centres unmarked) [Compound 1, 5-((2,6-difluorobenzyloxy)methyl)-5-methyl-3-o-tolyl-4,5-dihydroisoxazole] the “Phytotoxicity, Corn” value (Corn [1]) was 1, the “Herbicidal efficacy, Digitaria sanguinalis” value (Digitaria sanguinalis [2]; post-emergence, 125 g/ha) was 6 and the “Herbicidal efficacy, Digitaria sanguinalis” value (Digitaria sanguinalis [2]; post-emergence, 250 g/ha) was 9. The “Herbicidal efficacy, Digitaria sanguinalis” value (Digitaria sanguinalis [2]; post-emergence, 500 g/ha) was 10, the “Herbicidal efficacy, Digitaria sanguinalis” value (Digitaria sanguinalis [2]; post-emergence, 1,000 g/ha) was 10 and the “Phytotoxicity, Wheat” value (Wheat [3]) was 0. For the same molecule, the “Phytotoxicity, Rice” value (Rice [4]) was 0, the “Herbicidal efficacy, Alopecurus myosuroides” value (Alopecurus myosuroides [5]; 62.5 g/ha) was 4 and the “Herbicidal efficacy, Alopecurus myosuroides” value (Alopecurus myosuroides [5]; 125 g/ha) was 6. The “Herbicidal efficacy, Alopecurus myosuroides” value (Alopecurus myosuroides [5]; 250 g/ha) was 8, the “Herbicidal efficacy, Alopecurus myosuroides” value (Alopecurus myosuroides [5]; 500 g/ha) was 9 and the “Phytotoxicity, Cotton” value (Cotton [6]) was 0. The “Phytotoxicity, Wheat” value (Wheat [7]) was 0, the “efficacy stronger than the References” value [8] was “about 8 times” and the “Herbicidal efficacy, Poa annua” value (Poa annua [9]; post-emergence, 125 g/ha) was 5. The “Herbicidal efficacy, Poa annua” value (Poa annua [9]; post-emergence, 250 g/ha) was 8, the “Herbicidal efficacy, Poa annua” value (Poa annua [9]; post-emergence, 500 g/ha) was 9 and the “Herbicidal efficacy, Poa annua” value (Poa annua [9]; post-emergence, 1,000 g/ha) was 10. For the same molecule, the “Phytotoxicity, Soybean” value (Soybean [10]) was 0, the “Phytotoxicity, Cotton” value (Cotton [11]) was 2 and the “Phytotoxicity, Soybean” value (Soybean [12]) was 2. For the same molecule, the “Herbicidal efficacy, Alopecurus myosuroides” value (Alopecurus myosuroides [13]; post-emergence, 125 g/ha) was 2, the “Herbicidal efficacy, Alopecurus myosuroides” value (Alopecurus myosuroides [13]; post-emergence, 250 g/ha) was 8 and the “Herbicidal efficacy, Alopecurus myosuroides” value (Alopecurus myosuroides [13]; post-emergence, 500 g/ha) was 7. The “Herbicidal efficacy, Alopecurus myosuroides” value (Alopecurus myosuroides [13]; post-emergence, 1,000 g/ha) was 9, the “suppression of barnyardgrass, large crabgrass, and annual bluegrass” value [14] was “greatly suppressed” and the “Phytotoxicity, Corn” value (Corn [15]) was 2. For the same molecule, the “Herbicidal efficacy, Echinochloa crusgalli” value (Echinochloa crusgalli [16]; 62.5 g/ha, scale 0 to 10) was 10, the “Herbicidal efficacy, Echinochloa crusgalli” value (Echinochloa crusgalli [16]; 125 g/ha, scale 0 to 10) was 10 and the “Herbicidal efficacy, Echinochloa crusgalli” value (Echinochloa crusgalli [16]; 250 g/ha, scale 0 to 10) was 10. The “Herbicidal efficacy, Echinochloa crusgalli” value (Echinochloa crusgalli [16]; 500 g/ha, scale 0 to 10 (0: no effects, 10: complete death)) was 10, the “Phytotoxicity, Rice” value (Rice [17]) was 0 and the “Herbicidal efficacy, Echinochloa crusgalli” value (Echinochloa crusgalli [18]; post-emergence, 125 g/ha) was 7. For the same molecule, the “Herbicidal efficacy, Echinochloa crusgalli” value (Echinochloa crusgalli [18]; post-emergence, 250 g/ha) was 9, the “Herbicidal efficacy, Echinochloa crusgalli” value (Echinochloa crusgalli [18]; post-emergence, 500 g/ha) was 10 and the “Herbicidal efficacy, Echinochloa crusgalli” value (Echinochloa crusgalli [18]; post-emergence, 1,000 g/ha) was 10. For the same molecule, the “Herbicidal efficacy, Poa annua” value (Poa annua [19]; 62.5 g/ha) was 9, the “Herbicidal efficacy, Poa annua” value (Poa annua [19]; 125 g/ha) was 10 and the “Herbicidal efficacy, Poa annua” value (Poa annua [19]; 250 g/ha) was 10. For the same molecule, the “Herbicidal efficacy, Poa annua” value (Poa annua [19]; 500 g/ha) was 10, the “Herbicidal efficacy, Digitaria sanguinalis” value (Digitaria sanguinalis [20]; 62.5 g/ha) was 9 and the “Herbicidal efficacy, Digitaria sanguinalis” value (Digitaria sanguinalis [20]; 125 g/ha) was 10. The “Herbicidal efficacy, Digitaria sanguinalis” value (Digitaria sanguinalis [20]; 250 g/ha) was 10 and the “Herbicidal efficacy, Digitaria sanguinalis” value (Digitaria sanguinalis [20]; 500 g/ha) was 10.
